Measured values from patent US20230081539A1, “SUPRACHOROIDAL DELIVERY OF DRUG PARTICLES TO REDUCE TOXICITY” (The Johns Hopkins University, priority 2020, published 2023).

Columns and labels:
HIF-2 = HIF-2 (Homo sapiens, UniProt Q99814); conditions: in vitro; cited from earlier work
[1] = system: choroidal NV at Bruch's membrane rupture sites; assay: Mouse CNV model, intravitreous injection of free ACF or PRF; format: in vivo, C57BL/6 mice; conditions: mice, 1 μl intravitreous injection of 50 ng immediately after rupture of Bruch's membrane, read after seven days
Experimental: Seven days after rupture of Bruch's membrane, mice were euthanized, eyecups were fixed and stained with FITC-labeled Griffonia Simplicifolia lectin (GSA, Vector Laboratories, Burlingame, Calif.), and flat mounted. The area of choroidal NV at each Bruch's membrane rupture site was measured by image analysis by an observer masked with respect to treatment group. The area of choroidal NV at the 3 rupture sites in one eye was averaged to give one experimental value for each animal. […] One week after rupture of Bruch's membrane, choroidal flat mounts were stained with FITC-Griffonia simplicifolia lectin.

HIF-1 = HIF-1 (Homo sapiens, UniProt Q16665); conditions: in vitro; cited from earlier work
[2] = Pharmacokinetics in rats: TRF and PRF in ocular tissues by LC-MS/MS after suprachoroidal PLGA-ACF MPs
Experimental: The injection site was marked in each eye. Six rats were euthanized at each of the following time points after injection: 1 and 2 weeks, and 1, 2, 3, and 4 months. After removal of the anterior segment and lens of each eye, the retina and RPE/choroid/sclera were dissected and cut in half along the horizontal meridian through the optic nerve head and frozen separately. Samples were analyzed for acriflavine and proflavine by liquid chromatography with tandem mass spectrometry (LC-MS/MS). Tissue samples were homogenized in 200 μl of methanol and homogenized with Next Advance Bullet Blender. The analytes were extracted from 25 μl of homogenized tissue with 250 μl of acetonitrile containing internal standard (5 ng/ml of acridine orange). Samples were centrifuged and the top layer was transferred to an auto sampler vial for LC/MS/MS analysis.
Mobile phase A was water containing 0.1% formic acid and mobile phase B was acetonitrile containing 0.1% formic acid. The gradient started with mobile phase B held at 50% for 1 minute and increased to 100% over 0.5 minutes; 100% mobile phase B was held for 1.5 minutes and then returned back to 50% mobile phase B and allowed to equilibrate for 1 minute. […] The column effluent was monitored using a Sciex 4500 triple quadrupole mass spectrometer with electrospray ionization operating in positive mode. […]

Sequence of HIF-2 (Q99814 whole entry): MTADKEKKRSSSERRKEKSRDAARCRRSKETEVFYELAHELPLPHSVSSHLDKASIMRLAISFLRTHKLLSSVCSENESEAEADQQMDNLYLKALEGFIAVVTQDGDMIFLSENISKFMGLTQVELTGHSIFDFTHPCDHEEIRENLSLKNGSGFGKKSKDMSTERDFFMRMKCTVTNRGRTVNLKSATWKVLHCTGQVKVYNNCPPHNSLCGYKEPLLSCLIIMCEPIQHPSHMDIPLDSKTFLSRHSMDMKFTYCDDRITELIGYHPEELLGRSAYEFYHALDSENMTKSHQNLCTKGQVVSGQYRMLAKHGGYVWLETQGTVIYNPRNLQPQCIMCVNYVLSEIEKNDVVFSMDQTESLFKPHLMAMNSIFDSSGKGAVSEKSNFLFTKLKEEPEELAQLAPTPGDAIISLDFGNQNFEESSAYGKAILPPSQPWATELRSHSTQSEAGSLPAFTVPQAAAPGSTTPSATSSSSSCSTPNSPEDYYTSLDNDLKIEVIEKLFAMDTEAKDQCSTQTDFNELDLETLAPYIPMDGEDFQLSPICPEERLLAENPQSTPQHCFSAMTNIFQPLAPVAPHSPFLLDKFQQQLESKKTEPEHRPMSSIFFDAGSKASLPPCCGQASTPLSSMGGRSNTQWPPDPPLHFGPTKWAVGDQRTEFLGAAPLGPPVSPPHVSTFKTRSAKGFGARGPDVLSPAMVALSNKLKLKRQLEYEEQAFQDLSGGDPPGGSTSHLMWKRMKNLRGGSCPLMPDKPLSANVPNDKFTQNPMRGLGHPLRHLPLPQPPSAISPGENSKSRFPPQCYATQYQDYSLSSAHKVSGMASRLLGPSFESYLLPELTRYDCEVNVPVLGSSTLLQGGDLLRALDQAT
Sequence of HIF-1 (Q16665 whole entry): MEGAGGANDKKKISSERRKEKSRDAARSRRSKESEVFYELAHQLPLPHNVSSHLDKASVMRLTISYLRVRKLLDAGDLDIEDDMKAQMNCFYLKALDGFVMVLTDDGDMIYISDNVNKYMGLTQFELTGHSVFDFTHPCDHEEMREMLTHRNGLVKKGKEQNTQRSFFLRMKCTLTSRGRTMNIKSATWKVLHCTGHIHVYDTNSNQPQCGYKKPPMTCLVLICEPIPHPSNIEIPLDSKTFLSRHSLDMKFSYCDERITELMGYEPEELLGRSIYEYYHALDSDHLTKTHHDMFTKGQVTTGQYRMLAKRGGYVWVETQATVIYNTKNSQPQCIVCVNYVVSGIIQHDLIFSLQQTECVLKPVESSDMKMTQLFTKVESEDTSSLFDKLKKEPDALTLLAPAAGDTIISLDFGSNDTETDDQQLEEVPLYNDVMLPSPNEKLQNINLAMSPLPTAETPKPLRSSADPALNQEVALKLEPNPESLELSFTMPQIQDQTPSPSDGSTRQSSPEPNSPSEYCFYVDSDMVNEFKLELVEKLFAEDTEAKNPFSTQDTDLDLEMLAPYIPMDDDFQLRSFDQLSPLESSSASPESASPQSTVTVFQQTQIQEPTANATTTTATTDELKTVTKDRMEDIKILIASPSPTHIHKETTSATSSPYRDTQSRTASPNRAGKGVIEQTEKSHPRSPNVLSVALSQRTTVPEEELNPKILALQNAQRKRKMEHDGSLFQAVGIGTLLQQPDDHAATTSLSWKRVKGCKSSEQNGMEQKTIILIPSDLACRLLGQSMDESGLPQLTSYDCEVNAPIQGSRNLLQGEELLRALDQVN

Compound	concentration that inhibits the transcriptional activity of HIF-2 (HIF-2)	area of CNV at Bruch's membrane rupture sites compared with PBS [1]	concentration that inhibits the transcriptional activity of HIF-1 (HIF-1)	also measured
3,6-diamino-10-methylacridinium chloride mixed with 3,6-acridinediamine [ACF]	nanomolar	statistically significant reduction	nanomolar	
Nc1ccc2cc3ccc(N)cc3nc2c1 [PRF, proflavine]		almost identical to that of eyes treated with PBS		
C[n+]1c2cc(N)ccc2cc2ccc(N)cc21.[Cl-] [TRF, trypaflavine]				duration of steady-state levels in the low nM range in RPE/choroid and retina ([2]; suprachoroidal PLGA-ACF MPs): at least 16 weeks; steady-state level in inferior retina ([2]; suprachoroidal PLGA-ACF MPs containing 10 μg ACF, 2 through 16 weeks): ~0.1 nM
C[C@H]1O[C@@H](O[C@H]2[C@@H](O)C[C@H](O[C@H]3[C@@H](O)C[C@H](O[C@H]4CC[C@@]5(C)[C@H](CC[C@@H]6[C@@H]5C[C@@H](O)[C@]5(C)[C@@H](C7=CC(=O)OC7)CC[C@]65O)C4)O[C@@H]3C)O[C@@H]2C)C[C@H](O)[C@@H]1O [digoxin]	nanomolar			
C[C@@H]1O[C@@H](O[C@H]2C[C@@H](O)[C@]3(CO)[C@H]4[C@H](O)C[C@]5(C)[C@@H](C6=CC(=O)OC6)CC[C@]5(O)[C@@H]4CC[C@]3(O)C2)[C@H](O)[C@H](O)[C@H]1O [ouabain]	nanomolar			
C[C@@H]1O[C@@H](O[C@@H]2C=C3CC[C@@H]4[C@H](CC[C@]5(C)[C@@H](c6ccc(=O)oc6)CC[C@]45O)[C@@]3(C)CC2)[C@H](O)[C@H](O)[C@H]1O [proscillaridin A]	nanomolar		nanomolar	
